Source: paper PMC6522510 (Nature Communications, 2019)
Read-outs that look alike come from different tables or passages of the source.

Tests used:
Assay in all cases: cells
Parameters in all cases: species or system AML cell lines (8); Secondary HTS, 10-point dose-response in triplicate, Cell Titer Glo viability, four-parameter fit EC50
[1] = system: MOLM-13; settings: Homo sapiens, read-out: MOLM-13
[2] = system: MV4-11; settings: Homo sapiens, read-out: MV4-11
[3] = system: CHRF288-11; settings: read-out: CHRF288-11
[4] = system: CMK; settings: Homo sapiens, read-out: CMK
[5] = system: CMS; settings: read-out: CMS
[6] = system: M07e; settings: M-07e, read-out: M07e
[7] = system: ML-2; settings: Homo sapiens, read-out: ML-2
[8] = system: U937; settings: Homo sapiens, read-out: U937

SMILES	EC50 ([1]; MOLM-13, 72 h)	EC50 ([2]; MV4-11, 72 h)	EC50 ([3]; 72 h)	EC50 ([4]; CMK, 72 h)	EC50 ([5]; 72 h)	EC50 ([6]; 72 h)	EC50 ([7]; ML-2, 72 h)	EC50 ([8]; U-937, 72 h)	EC50 ([1]; 72 h cell viability)	EC50 ([2]; 72 h cell viability)	EC50 ([3]; 72 h cell viability)	EC50 ([4]; 72 h cell viability)	EC50 ([5]; 72 h cell viability)	EC50 ([6]; 72 h cell viability)	EC50 ([7]; 72 h cell viability)	EC50 ([8]; U-937, 72 h cell viability)
CCNC(=O)C[C@@H]1N=C(c2ccc(Cl)cc2)c2cc(OC)ccc2-n2c(C)nnc21 [SJ000574791, I-BET-762]	4600 nM	0.97 µM	> 10 µM	> 10 µM	9.8 µM	0.001 µM	9.8 µM	4.3 µM	–	–	–	–	–	–	–	–
COc1cc(Nc2ncc(F)c(Nc3ccc4c(n3)NC(=O)C(C)(C)O4)n2)cc(OC)c1OC [SJ000772392, R406]	140 nM	0.057 µM	> 10 µM	> 10 µM	0.9 µM	> 10 µM	> 10 µM	> 10 µM	–	–	–	–	–	–	–	–
COc1cc(O)c2c(c1)/C=C/C[C@H](O)[C@H](O)C(=O)/C=C\C[C@H](C)OC2=O [SJ000773172, (5Z)-7-OXOZEAENOL]	> 10000 nM	> 10 µM	2.1 µM	0.37 µM	7.3 µM	0.84 µM	5.5 µM	6.6 µM	–	–	–	–	–	–	–	–
Nc1[nH]nc2nnc(-c3c(-c4ccccc4)nn4ccccc34)cc12 [SJ000773182, FR 180204]	> 10000 nM	> 10 µM	> 10 µM	> 10 µM	> 10 µM	> 10 µM	> 10 µM	> 10 µM	–	–	–	–	–	–	–	–
O=C(Nc1ccccc1-c1cn2c(CN3CCNCC3)csc2n1)c1cnc2ccccc2n1 [SJ000784238, SRT1720]	> 10000 nM	> 10 µM	5.6 µM	> 10 µM	> 10 µM	4.4 µM	> 10 µM	1.5 µM	–	–	–	–	–	–	–	–
Cc1ccc(NC(=O)CCCCCC(=O)Nc2ccccc2N)cc1 [SJ000784239, PIMELIC DIPHENYLAMIDE 106]	> 10000 nM	> 10 µM	> 10 µM	> 10 µM	8.2 µM	6.7 µM	> 10 µM	> 10 µM	–	–	–	–	–	–	–	–
Cc1cc(Cl)ccc1OCCCC(=O)NO [SJ000784245, DROXINOSTAT]	> 10000 nM	> 10 µM	0.37 µM	> 10 µM	6.81 µM	> 10 µM	> 10 µM	> 10 µM	–	–	–	–	–	–	–	–
O=C(Nc1cccc(NC(=O)c2cccc(O)c2O)c1)c1cccc(O)c1O [SJ000784251, MST312]	1500 nM	> 10 µM	2 µM	> 10 µM	2.9 µM	5.2 µM	3.7 µM	2.8 µM	–	–	–	–	–	–	–	–
O=C(O)Cc1ccccc1 [SJ000784253, SODIUM PHENYLACETATE]	–	–	–	–	–	–	–	–	2100 nM	> 10 µM	> 10 µM	> 10 µM	> 10 µM	> 10 µM	> 10 µM	> 10 µM
CC(=O)Nc1ccc(NC(=S)NC(=O)c2ccc(C(C)(C)C)cc2)cc1 [SJ000784260, TENOVIN-1]	> 10000 nM	> 10 µM	> 10 µM	> 10 µM	0.77 µM	> 10 µM	> 10 µM	> 10 µM	–	–	–	–	–	–	–	–
COc1cc2c(NC3CCN(C)CC3)nc(N3CCCN(C)CC3)nc2cc1OCCCN(C)C [SJ000784262, UNC0224]	> 10000 nM	> 10 µM	> 10 µM	> 10 µM	> 10 µM	> 10 µM	> 10 µM	> 10 µM	–	–	–	–	–	–	–	–
CN(C)CC(=O)Nc1ccc2[nH]c(=O)c3ccccc3c2c1 [SJ000784265, PJ34]	> 10000 nM	> 10 µM	> 10 µM	> 10 µM	> 10 µM	> 10 µM	> 10 µM	> 10 µM	–	–	–	–	–	–	–	–
NC(=O)C1CCCc2c1[nH]c1ccc(Cl)cc21 (stereo not drawn) [SJ000784267]	> 10000 nM	> 10 µM	> 10 µM	> 10 µM	> 10 µM	> 10 µM	> 10 µM	> 10 µM	–	–	–	–	–	–	–	–
Cn1cc(/C=C/C(=O)c2cccc(F)c2)cc1/C=C/C(=O)NO [SJ000784269, MC1568]	> 10000 nM	> 10 µM	4.9 µM	> 10 µM	> 10 µM	0.456 µM	4.3 µM	3.4 µM	–	–	–	–	–	–	–	–
Clc1ccc(-c2csc(NN=C3CCCC3)n2)cc1 [SJ000784270, CPTH2]	> 10000 nM	> 10 µM	> 10 µM	> 10 µM	> 10 µM	> 10 µM	> 10 µM	> 10 µM	–	–	–	–	–	–	–	–
Cn1cccc1/C=C1\C(=O)NC(=O)c2ccccc21 [SJ000784271, BYK 204165]	260 nM	0.72 µM	5.5 µM	> 10 µM	2.2 µM	0.63 µM	> 10 µM	1.6 µM	–	–	–	–	–	–	–	–
CN(C)CCCNc1c2ccccc2nc2c1[nH]c1ccccc12 [SJ000784272, SYUIQ-5]	1600 nM	> 10 µM	1.6 µM	> 10 µM	0.37 µM	0.54 µM	1.8 µM	0.21 µM	–	–	–	–	–	–	–	–
CC(C)C(=O)SCCCCCCC(=O)Nc1nc(-c2ccccc2)cs1 [SJ000784276, NCH 51]	3100 nM	> 10 µM	3.6 µM	> 10 µM	4.5 µM	3.6 µM	5.6 µM	6.7 µM	–	–	–	–	–	–	–	–
NC(=O)c1cccc2ncc(-c3ccc(Cl)cc3)nc12 [SJ000784278, PARP INHIBITOR XII]	2500 nM	> 10 µM	> 10 µM	> 10 µM	> 10 µM	> 10 µM	> 10 µM	> 10 µM	–	–	–	–	–	–	–	–
O=C(O)C(Cc1c[nH]c2ccccc12)N1C(=O)c2ccccc2C1=O (stereo not drawn) [SJ000784279, RG108]	> 10000 nM	> 10 µM	> 10 µM	> 10 µM	> 10 µM	> 10 µM	> 10 µM	> 10 µM	–	–	–	–	–	–	–	–
COC(=O)/C=C/C(=O)OC [SJ000784308, BG-12]	> 10000 nM	> 10 µM	> 10 µM	> 10 µM	> 10 µM	> 10 µM	> 10 µM	> 10 µM	–	–	–	–	–	–	–	–
COc1ccc(-c2cc3c(C)nc(N)nc3n([C@H]3CC[C@H](OCCO)CC3)c2=O)cn1 [SJ000784313, PF-04691502]	2100 nM	0.001 µM	4.3 µM	1.4 µM	0.34 µM	> 10 µM	0.23 µM	0.6 µM	–	–	–	–	–	–	–	–
CN[C@@H]1C[C@H]2O[C@@](C)([C@@H]1OC)n1c3ccccc3c3c4c(c5c6ccccc6n2c5c31)C(=O)N[C@H]4O [SJ000784325, 7-HYDROXYSTAUROSPORINE]	65 nM	0.19 µM	0.35 µM	0.23 µM	0.41 µM	> 10 µM	0.25 µM	0.26 µM	–	–	–	–	–	–	–	–
Nc1nc(=O)n([C@H]2C[C@H](O)[C@@H](CO)O2)cc1F [SJ000785889, 5-FLUORODEOXYCYTIDINE]	450 nM	> 10 µM	3.17 µM	0.14 µM	> 10 µM	> 10 µM	0.0089 µM	> 10 µM	–	–	–	–	–	–	–	–
COc1cc2c(cc1-c1c(C)noc1C)ncc1[nH]c(=O)n([C@H](C)c3ccccn3)c12 [SJ000785891, I-BET151]	650 nM	> 10 µM	5.1 µM	> 10 µM	2.1 µM	> 10 µM	2.7 µM	3.2 µM	–	–	–	–	–	–	–	–
Fc1ccc(CNc2ncnc3ccc(F)cc23)cc1 [SJ000785893, SPAUTIN-1]	> 10000 nM	> 10 µM	> 10 µM	> 10 µM	> 10 µM	> 10 µM	> 10 µM	3 µM	–	–	–	–	–	–	–	–
Nc1ncnc2c1ncn2[C@@H]1O[C@H](C(=O)N2CCN(CC(=O)Nc3cccc4c3CNC4=O)CC2)[C@@H](O)[C@H]1O [SJ000785896, EB-47]	> 10000 nM	> 10 µM	> 10 µM	> 10 µM	> 10 µM	> 10 µM	> 10 µM	> 10 µM	–	–	–	–	–	–	–	–
